Experimental data as given in patent US8912227B1, “Bicyclic pyrrole derivatives useful as agonists of GPR120” (Janssen Pharmaceutica NV, priority 2014, dated 2014).

Experiments:
Human GPR120 short form [1] = target: T1, Human GPR120 short form (Homo sapiens, UniProt Q5NUL3); experiment: Human GPR120 calcium flux assay, Procedure Calcium A; assay type: cell-based; details: HEK-293 cells expressing human GPR120 short form, 2500 cells/well, FLIPR
T1 construct: expressed in transfected cells
T1 sequence (Q5NUL3 1-361): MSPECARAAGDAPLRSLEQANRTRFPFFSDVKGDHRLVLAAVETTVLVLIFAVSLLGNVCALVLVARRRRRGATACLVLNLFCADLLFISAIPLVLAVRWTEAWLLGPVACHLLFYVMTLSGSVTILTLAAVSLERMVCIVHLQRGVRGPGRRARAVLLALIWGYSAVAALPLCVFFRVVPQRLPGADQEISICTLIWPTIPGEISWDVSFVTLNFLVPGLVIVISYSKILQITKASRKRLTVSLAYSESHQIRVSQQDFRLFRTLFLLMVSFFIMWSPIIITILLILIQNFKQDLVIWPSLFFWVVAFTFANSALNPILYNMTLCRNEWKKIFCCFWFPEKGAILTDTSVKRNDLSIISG
Text: (§1) This in vitro assay serves to assess test compound agonist activity against the short splice variant (SVS with Accession number NM_001195755.1 confirmed by sequencing data) of the GPR120 receptor. The Human Short splice variant #2 (NM_001195755.1) is missing an in-frame coding exon compared to variant 1 (the Human Long splice variant NM_181745.3), resulting in a shorter isoform (GPR120-S) lacking a 16 aa protein segment compared to isoform GPR120-L. The assay platform utilizes HEK-293 cells stably transfected to express the Human GPR120 short form. These cells are first loaded with the Ca^+2 sensitive dye, Fluo-4 NW. Upon stimulation, intracellular released Ca^+2 can bind to the dye and alter its fluorescence intensity. This increase in fluorescence signal, and thus the flux in intracellular [Ca^2+], is detected and quantitated by fluorescence imaging using a FLIPR reader. The effect of the agonist is measured as a function of concentration and used to calculate an EC50 based upon a response curve.
In this procedure 2500 cells/well were employed.
(§2) A Human GPR120 clone (Genbank accession number NM_001195755.1) was placed into the pcDNA3.1 mammalian expression vector carrying the neomycin resistance gene. A stable mammalian cell was generated by placing the above clone into a HEK293 background. Clonal cells responding to long chain fatty acids had expression levels of GPR120 confirmed by RT-qPCR. Human HEK-GPR120 cells were cultured in Dulbecco's Modified Eagle's Medium (DMEM)/F12 medium supplemented with 10% fetal bovine serum (FBS), 1% L-Glutamine and 1% penicillin/streptomycin and 0.5 mg/ml G-418. Cells were split 2 times a week to keep the cells in the log-phase growth.
(§3) In preparation for the assay, HEK cells stably transfected with Human GPR120 (2.5K cells per well in 25 uL growth medium) were seeded into 384-well plates and then incubated overnight (37° C., 5% CO2). The next day, the media was changed to 20 μl assay buffer and the cell starved for 1 h at 37° C. The dye loading solution (2× dye) was prepared using 10 ml assay buffer, 100 μl of 250 mM probenecid, 1 bottle of Component A, and 20 μl of dye in DMSO. Twenty μl of the 2× dye loading buffer was then added to each well. The plates were incubated at 37° C. for 30 min, then at room temperature for an additional 15 minutes, before performing the assay on FLIPR.
(§4) Test compounds were prepared in assay buffer (2 μl of test compound+198 μl assay buffer, final DMSO in assay plate is 0.2%) at the desired concentration, more particularly at 100 μM, 50 μM, 25 μM, 12.5 μM, 6.25 μM, 3.125 μM, 1.562 μM, 0.781 μM, 0.391 μM, 0.195 μM, 0.098 μM, 0.049 μM, 0.024 μM and 0.012 μM.
(§5) The assay was performed on a FLIPR plate reader using the following parameters. Baseline was read for 10 seconds at 1 sec intervals. The program was set to transfer 10 μL of ligand from compound plate to cell plate after baseline reading. Aspiration was executed at: 10 μl/sec speed, 4.6 μl height; Dispensing was executed at: 30 μl/sec speed, 45 μl height. After compound addition, each well was read for 300 sec, with measurements collected at 1 sec intervals.
(§6) The kinetic data from the FLIPR was based upon a 5 minute window for data collection. The fluorescence of each sample well was used for individual calculations of a normalized RFU value, which was defined as maximum response minus the minimum response. The normalized fluorescence reading (RFU) was calculated as follows: RFU=Fmax−Fmin
(§7) The data were fitted to a sigmoidal dose-response curve with a variable Hill slope (<2) using nonlinear regression with GraphPad Prism 5.0 to calculate the EC50 values. The Fitting Equation was: Y=Bottom+(Top−Bottom)/(1+10^((LogEC50−X)*HillSlope)), where X is the log of the concentration and Y is the response.

Human GPR120 short form [2] = target: T1, Human GPR120 short form; experiment: Human GPR120 calcium flux assay, Procedure Calcium B; assay type: cell-based; details: HEK-293 cells expressing human GPR120 short form, 4200 cells/well, FLIPR
Text: as §1
In this procedure 4200 cells/well were employed.
as §2, §3, §4, §5, §6, §7

Compound | EC50 (Human GPR120 short form [1]) [nM] | EC50 (Human GPR120 short form [2]) [nM]
CCc1ccc(-n2cccc2COc2ccc(CCC(=O)O)c(C)c2C)cc1 [Compound 2, 3-(4-{[1-(4-Ethylphenyl)-1H-pyrrol-2-yl]methoxy}-2,3-dimethylphenyl)propanoic acid] | > 20000 | –
O=C(O)CCc1ccc(OCc2cccn2-c2ccc(Cl)cc2)c(F)c1F [Compound 4, 3-(4-{[1-(4-Chlorophenyl)-1H-pyrrol-2-yl]methoxy}-2,3-difluorophenyl)propanoic acid] | > 20000 | –
Cc1c(CCC(=O)O)ccc(OCc2c(C#N)ccn2-c2ccc(Cl)cc2)c1C [Compound 12, 3-(4-{[1-(4-Chlorophenyl)-3-cyano-1H-pyrrol-2-yl]methoxy}-2,3-dimethylphenyl)propanoic acid] | 4260 | 1140
Cc1c(CCCO)ccc(OCc2c(Br)ccn2-c2ccc(Cl)cc2)c1C [Compound 13, 3-(4-{[3-Bromo-1-(4-chlorophenyl)-1H-pyrrol-2-yl]methoxy}-2,3-dimethylphenyl)propan-1-ol] | 1560 | 899
Cc1c(CCC(=O)O)ccc(OCc2c(Br)ccn2-c2ccc(Cl)cc2)c1C [Compound 14, 3-(4-{[3-Bromo-1-(4-chlorophenyl)-1H-pyrrol-2-yl]methoxy}-2,3-dimethylphenyl)propanoic acid] | 2890 | 1400
Cc1c(CCC(=O)O)ccc(OCc2c(C(F)(F)F)ccn2-c2ccc(Br)cc2)c1C [Compound 23, 3-(4-{[1-(4-Bromophenyl)-3-(trifluoromethyl)-1H-pyrrol-2-yl]methoxy}-2,3-dimethylphenyl)propanoic acid] | 1110 | 199
CCc1ccc(-n2ccc(C(F)(F)F)c2COc2ccc(CCCO)c(C)c2C)cc1 [Compound 40, 3-(4-[[1-(4-ethylphenyl)-3-(trifluoromethyl)-1H-pyrrol-2-yl]methoxy]-2,3-dimethylphenyl)propan-1-ol] | 1920 | 896
CCc1ccc(-n2ccc(C(F)(F)F)c2COc2ccc(CCCO)c(F)c2F)cc1 [Compound 41, 3-(4-[[1-(4-ethylphenyl)-3-(trifluoromethyl)-1H-pyrrol-2-yl]methoxy]-2,3-difluorophenyl)propan-1-ol] | 1260 | 247
O=C(O)CCc1ccc(OCc2c(C(F)(F)F)ccn2-c2cccc(F)c2)cc1Cl [Compound 79, 3-(2-Chloro-4-{[1-(3-fluorophenyl)-3-(trifluoromethyl)-1H-pyrrol-2-yl]methoxy}phenyl)propanoic acid] | – | 998
O=C(O)CCc1ccc(OCc2c(C(F)(F)F)ccn2-c2ccc(F)cc2)cc1Cl [Compound 80, 3-(2-Chloro-4-{[1-(4-fluorophenyl)-3-(trifluoromethyl)-1H-pyrrol-2-yl]methoxy}phenyl)propanoic acid] | – | 923
O=C(O)CCc1ccc(OCc2c(C(F)(F)F)ccn2-c2cccc(F)c2)cc1C(F)(F)F [Compound 81, 3-[4-{[1-(3-Fluorophenyl)-3-(trifluoromethyl)-1H-pyrrol-2-yl]methoxy}-2-(trifluoromethyl)phenyl]propanoic acid] | – | 675
O=C(O)CCc1ccc(OCc2c(C(F)(F)F)ccn2-c2ccc(F)cc2)cc1C(F)(F)F [Compound 82, 3-[4-{[1-(4-Fluorophenyl)-3-(trifluoromethyl)-1H-pyrrol-2-yl]methoxy}-2-(trifluoromethyl)phenyl]propanoic acid] | – | 834

More lines, in order of falling EC50 (Human GPR120 short form [2]), values ahead:

EC50 (Human GPR120 short form [1]) [nM] | EC50 (Human GPR120 short form [2]) [nM] | Compound
3710 | 1360 | N#Cc1ccn(-c2ccc(Cl)cc2)c1COc1ccc(CCC(=O)O)c(F)c1F [Compound 9, 3-(4-{[1-(4-Chlorophenyl)-3-cyano-1H-pyrrol-2-yl]methoxy}-2,3-difluorophenyl)propanoic acid]
1730 | 1170 | Cc1c(CCCO)ccc(OCc2c(Cl)ccn2-c2ccc(Cl)cc2)c1C [Compound 7, 3-(4-{[3-Chloro-1-(4-chlorophenyl)-1H-pyrrol-2-yl]methoxy}-2,3-dimethylphenyl)propan-1-ol]
– | 1150 | O=C(O)CCc1cc(F)c(OCc2c(C(F)(F)C(F)(F)F)ccn2-c2ccc(Cl)cc2)c(F)c1 [Compound 63, 3-(4-((1-(4-chlorophenyl)-3-(perfluoroethyl)-1H-pyrrol-2-yl)methoxy)-3,5-difluorophenyl)propanoic acid]
1300 | 611 | Cc1c(CCCO)ccc(OCc2c(C(F)(F)F)ccn2-c2ccc(Br)cc2)c1C [Compound 18, 3-(4-{[1-(4-Bromophenyl)-3-(trifluoromethyl)-1H-pyrrol-2-yl]methoxy}-2,3-dimethylphenyl)propan-1-ol]
– | 489 | Cc1c(CCC(=O)O)ccc(OCc2c(C(F)(F)F)ccn2-c2cccc(F)c2)c1C [Compound 84, 3-(4-{[1-(3-Fluorophenyl)-3-(trifluoromethyl)-1H-pyrrol-2-yl]methoxy}-2,3-dimethylphenyl)propanoic acid]
– | 448 | O=C(O)CCc1cc(F)c(OCc2c(C(F)(F)F)ccn2-c2cccc(F)c2)c(F)c1 [Compound 85, 3-(3,5-Difluoro-4-{[1-(3-fluorophenyl)-3-(trifluoromethyl)-1H-pyrrol-2-yl]methoxy}phenyl)propanoic acid]
– | 404 | Cc1cc(CCC(=O)O)ccc1OCc1c(C(F)(F)F)ccn1-c1cccc(F)c1 [Compound 88, 3-(4-{[1-(3-Fluorophenyl)-3-(trifluoromethyl)-1H-pyrrol-2-yl]methoxy}-3-methylphenyl)propanoic acid]
– | 346 | Cc1c(CCC(=O)O)ccc(OCc2c(C(F)(F)F)ccn2-c2ccc(F)cc2)c1C [Compound 83, 3-(4-{[1-(4-Fluorophenyl)-3-(trifluoromethyl)-1H-pyrrol-2-yl]methoxy}-2,3-dimethylphenyl)propanoic acid]
1270 | 289 | O=C(O)CCc1ccc(OCc2c(C(F)(F)F)ccn2-c2ccc(Br)cc2)c(F)c1F [Compound 20, 3-(4-{[1-(4-Bromophenyl)-3-(trifluoromethyl)-1H-pyrrol-2-yl]methoxy}-2,3-difluorophenyl)propanoic acid]
– | 280 | Cc1cc(CCC(=O)O)ccc1OCc1c(C(F)(F)F)ccn1-c1ccc(F)cc1 [Compound 86, 3-(4-{[1-(4-Fluorophenyl)-3-(trifluoromethyl)-1H-pyrrol-2-yl]methoxy}-3-methylphenyl)propanoic acid]
– | 134 | O=C(O)CCc1cc(F)c(OCc2c(C(F)(F)F)ccn2-c2ccc(F)cc2)c(F)c1 [Compound 87, 3-(3,5-Difluoro-4-{[1-(4-fluorophenyl)-3-(trifluoromethyl)-1H-pyrrol-2-yl]methoxy}phenyl)propanoic acid]
1520 | 112 | O=C(O)CCc1cc(F)c(OCc2c(C(F)(F)F)ccn2-c2ccc(Br)cc2)c(F)c1 [Compound 22, 3-(4-{[1-(4-Bromophenyl)-3-(trifluoromethyl)-1H-pyrrol-2-yl]methoxy}-3,5-difluorophenyl)propanoic acid]
